Cytotoxicity data for 98 molecules are collected here from ChEMBL document CHEMBL3507680, “University of Dundee, Gates Library screen for HepG2 cell viability”.

This series can be described thus: Human HepG2 cell viability assay in 384 well format. The class given is toxicity, cell-based. Set-up: dose 125 nL, time 70.5 hour; concentration not given beside the values. The settings on record: HepG2 cells, read-out: Inhibition.
As to `O=C(c1cnc(-c2ccccc2)nc1)N1CCOC2(CCCC2)C1`, the cytotoxicity at 70.5 h is -8.9%.
The value for `COCc1ncc(CN2C[C@@H](C(=O)O)[C@H](C(C)C)C2)cn1` was 9.21%; that for `Cc1nc(C2CCCN(C(=O)C(C)(C)n3cc(Cl)cn3)C2)no1` (stereo not drawn) was -13.5%.
The value for `COC(=O)CC(NC(=O)c1cc(OC)c2c(c1)OCCO2)c1cccs1` (stereo not drawn) was -9.89%.
To `Cc1cccc2c(CCNC(=O)[C@H](N)c3ccccc3)c[nH]c12` belongs -17.6%; to `Cc1cnn(CC2CN(CCS(=O)(=O)c3ccccc3)CCO2)c1` (stereo not drawn), -9.7%.
For the molecule `CCc1nn(C)c2[nH]nc(NC(=O)c3ccccc3COC)c12`, the cytotoxicity at 70.5 h is -101%.
Turning to `Cc1c(C(C)NC(=O)C2CCCC2)cnn1C` (stereo not drawn), the cytotoxicity at 70.5 h stood at 36.2%.
For `Cc1nn(CC(=O)n2cccn2)c(C)c1I`, the cytotoxicity at 70.5 h came to 15.6%.
The value for `CC(=O)N(C)CC(=O)NC(CC(C)C)c1cccs1` (stereo not drawn) was -5.7%; that for `O=C(c1ccsc1)N1CCc2c(nc(-c3ccncc3)[nH]c2=O)C1` was -6.38%; that for `CCS(=O)(=O)NC(CCSC)C(=O)Nc1ccc(C)cc1C` (stereo not drawn) was -88.5%.
On to `O=C(c1ccncc1Cl)N1CCN(Cc2ccco2)C(CCO)C1` (stereo not drawn), for which the cytotoxicity at 70.5 h was 16.2%.
The value for `c1cnnc(N2CCCC2CNCc2noc(C3CC3)n2)c1` (stereo not drawn) was 27.1%; that for `COc1c(CNCc2ccc(C(=O)NC3CC3)cc2)c(C)nn1C` was -3.83%; that for `CC(C)N1CCOCC2(CCCN(C(=O)c3cn(C)cn3)C2)C1` (stereo not drawn) was 0.0869%.
To `COc1ccc(C(=O)N2CCCC2c2cnn(C)c2)cn1` (stereo not drawn) belongs 9.21%; to `Cn1cc(CN2CC[C@@H]3[C@@H](CCC(=O)N3CCC3=CCCCC3)C2)cn1`, -4.77%; to `COCCCN1C(=O)CC[C@H]2CN(c3ccc(C(N)=O)cn3)CC[C@H]21`, 4.03%.
Turning to `CC(CCN(C)C)NC(=O)N1CCSC(C)(C)C1` (stereo not drawn), the cytotoxicity at 70.5 h is -1.34%.
The value for `Cc1cccc(C(=O)N2C[C@@H]3COC[C@@H](CC(=O)N4CCCC4)[C@@H]3C2)n1` was 4.3%; that for `O=C(CCNC(=O)c1ccoc1)Nc1cc(F)cc(F)c1` was -10.4%.
To `N#Cc1ccc(OC[C@]23COC[C@H]2CN(Cc2ccccn2)C3)nc1` belongs 0.477%; to `CCOCc1nc2c(c(N3CC=CC3)n1)CCN(Cc1ccco1)CC2`, -3.14%; to `CC(C)(C)NC(=O)c1ccn(COc2ccccc2Cl)n1`, -5.39%.
On to `Cn1cnnc1C1CCCN(C(=O)NCc2ccccn2)C1` (stereo not drawn), for which the cytotoxicity at 70.5 h is 15.7%.
With `Cc1ccc(CN2CCN(C(=O)c3ccc(Br)o3)CC2)cc1`, the cytotoxicity at 70.5 h worked out at 27.9%.
As to `COC(=O)CCc1c(C)nc2cc(O)nn2c1C`, the cytotoxicity at 70.5 h was -2.64%.
On to `CN(C)C(=O)C1CCN(Cn2ccc(-c3ccc(F)cc3)n2)CC1`, for which the cytotoxicity at 70.5 h is -12.5%.
To `Cc1nc(CCNC(C)c2ccc3c(c2)OCCCO3)cs1` (stereo not drawn) belongs 0.884%.
To `CN(C)C(=O)COC[C@H]1CC[C@@H]2[C@@H](CCN2Cc2ccccn2)O1` belongs -7.44%; to `CCCNC(=O)C1(Cc2cc(-c3ccccc3)no2)CCN(C(C)=O)C1` (stereo not drawn), 3.68%; to `N#Cc1ccc(N2CCC3(CCCN(c4ccccn4)C3)C2)nc1` (stereo not drawn), -1.5%.
For the molecule `Cc1cc(C2CCCN2C(=O)NCc2cccnc2)on1` (stereo not drawn), the cytotoxicity at 70.5 h was -7.94%.
Take `COc1c(C2CCCN2C(=O)c2nccnc2N)c(C)nn1C` (stereo not drawn): the cytotoxicity at 70.5 h was -13%.
On to `CCN1CCN(C2(C(=O)NC3CCCC3)Cc3ccccc3C2)CC1`, for which the cytotoxicity at 70.5 h is -3.96%.
On to `Cc1nc(CN2C[C@@H]3CN(C(=O)Cc4ccccn4)C[C@@H]3C2)cs1`, for which the cytotoxicity at 70.5 h was -4.03%.
For `COc1ccc(CCC(=O)Nc2cccnc2N2CCCC2)cc1Br`, the cytotoxicity at 70.5 h is -5.48%.
`CCN(Cc1nccn1C)C(=O)c1ccc(NCC(C)C)nc1`: the cytotoxicity at 70.5 h is -6.64%.
As for `Cc1cnc(N2C[C@@H]3[C@@H](C2)OCC(=O)N3CC2CC2)nc1`, the cytotoxicity at 70.5 h worked out at 14.2%.
As for `O=C(COc1cccnc1)N1CCCC(n2cccn2)C1` (stereo not drawn), the cytotoxicity at 70.5 h was -2.58%.
To `Cc1ccc(S(=O)(=O)N(CC(N)=O)CC(C)C)cc1C` belongs -5.56%.
As to `COc1cc(C)c2c(c1C)C[C@H]([C@H](C)C(=O)O)CC2`, the cytotoxicity at 70.5 h was -3.45%.
To `COc1ccc2[nH]nc(CN3CCC(C(C)N(C)C)CC3)c2c1` (stereo not drawn) belongs 1.23%.
With `COc1cccc(OCC2CCCN(Cc3ccncc3)C2)c1` (stereo not drawn), the cytotoxicity at 70.5 h is -10.6%.
On to `CC(C)(C)c1nccc(N2CCCCC2CCNS(C)(=O)=O)n1` (stereo not drawn), for which the cytotoxicity at 70.5 h is 2.95%.
On to `Cc1ccc(C)c(NC(=O)C(C)N2CCCN(c3nccs3)CC2)c1` (stereo not drawn), for which the cytotoxicity at 70.5 h is -6.54%.
To `CC(=O)N1CCCCCC1C1CCN(c2ncccc2C#N)CC1` (stereo not drawn) belongs -1.45%; to `Cc1cccc(CN2C[C@@H]3CN(C(=O)NC(C)C)C[C@@H]3C2=O)n1`, -12%; to `Cc1ccc(C(=O)N2CCC(Oc3ccc(C)c(C)c3)CC2)c(=O)[nH]1`, -2.32%.
In the case of `CCOCC(=O)NCC(Cc1cccc(F)c1)n1cccc1` (stereo not drawn), the cytotoxicity at 70.5 h was -1.33%.
For the molecule `CC(C)Oc1ccc(CSc2nnc(CN3CCCC3=O)o2)cc1`, the cytotoxicity at 70.5 h was -7.62%.
To `Cn1cnc2ccc(NC(=O)CC3CCN(S(C)(=O)=O)CC3)cc21` belongs 12%; to `O=S(=O)(C1CC1)N1CCC2(CCCN(c3ncc(F)cn3)C2)C1` (stereo not drawn), -11.2%.
The value for `Cc1ccccc1CS(=O)(=O)Cc1nc(C2CC2)no1` was -3.39%; that for `CCCn1nc(C(=O)NCc2nnc3n2CCC3)ccc1=O` was 22.5%.
On to `Cn1cc(C[C@H]2[C@H](O)CCN2Cc2ccncc2)cn1`, for which the cytotoxicity at 70.5 h was -5.7%.
The value for `Cc1cc(C(C)C(=O)N2CCCN(Cc3cscn3)CC2)c(C)o1` (stereo not drawn) was 18.7%.
The value for `N#CCCN(CC1CCOC1)S(=O)(=O)c1c(F)cccc1Cl` (stereo not drawn) was -6.61%.
The value for `CN(C)C(=O)N[C@H]1CN(C2CCOCC2)[C@@H]2CCCO[C@H]12` was 17.6%.
With `Cc1ncsc1C(=O)N1CCN(Cc2ccccc2)CC1C` (stereo not drawn), the cytotoxicity at 70.5 h worked out at 2.52%.
For the molecule `NC(=O)CC1CCN(C(=O)c2csc(-c3ccccc3F)n2)CC1`, the cytotoxicity at 70.5 h is -18.8%.
The value for `CCc1nc(CN2CCCC(N(C)Cc3cnc(C)s3)C2)no1` (stereo not drawn) was -2%.
On to `O=C(O)[C@@H]1CCN(C(=O)c2cscn2)[C@@H]1c1ccc(F)cc1`, for which the cytotoxicity at 70.5 h was -2.87%.
The value for `CCNc1ncc2c(n1)CN(c1cccc(OC)c1)C2=O` was -7.43%; that for `c1cncc(CN2CCC(c3ccnc4nccn34)C2)c1` (stereo not drawn) was -1.1%.
The value for `CCNC(=O)[C@@H]1C[C@H](NC(=O)c2ccccc2C#N)CN1CCCSC` was -2.96%; that for `COC(=O)CNC(=O)Cn1ccc2ccc(F)cc21` was -3.86%; that for `O=C(NCc1cccs1)c1nc2c(o1)CN(C(=O)c1cccnc1)C2` was 7.5%.
The value for `CC(C)c1nc(C2CCCN2C(=O)c2cc(Cl)c[nH]2)no1` (stereo not drawn) was -2.12%; that for `O=C1COC2(CCN(Cc3nccs3)CC2)CN1c1ccccc1` was 5.28%; that for `Cc1nccn1CCC1CCCCN1C(=O)c1ccc2[nH]nnc2c1` (stereo not drawn) was -1.82%.
Take `Cc1[nH]c2ccccc2c1-c1ccnc(NC[C@H](O)CO)n1`: the cytotoxicity at 70.5 h was determined as 26.8%.
Regarding `CC(c1ccc(F)cc1F)N1CCN(CCC(=O)NC(N)=O)CC1` (stereo not drawn), the cytotoxicity at 70.5 h is -6.26%.
The value for `CC(=O)N1C[C@@H](F)[C@@H](OCc2nc3cc(C)c(C)cc3[nH]2)C1` was -0.883%; that for `Cc1nn(C)c(C)c1C1CCCN1C(=O)c1cc[nH]n1` (stereo not drawn) was -3.7%.
On to `Cc1ccc(N2CCCN(C(=O)c3c(C)oc(C)c3C)CC2)nn1`, for which the cytotoxicity at 70.5 h was -4.32%.
To `COC(=O)CSc1nnc2[nH]c(=O)c3c(n12)CCCC3` belongs -13.8%; to `COCc1nc(CNc2cc(C)on2)cs1`, -3.59%.
To `COc1cc(C(C)=O)ccc1OCC(=O)N(CC(C)C#N)C1CC1` (stereo not drawn) belongs -7.18%.
On to `CN(C)CC1(O)CCCN(Cc2cnc(-c3ccco3)nc2)CC1` (stereo not drawn), for which the cytotoxicity at 70.5 h was -8.26%.
For the molecule `NC(=O)CSc1nnc2[nH]c(=O)c3c(n12)CCCC3`, the cytotoxicity at 70.5 h was -12.6%.
In the case of `O=C(c1cccnc1)N1C[C@@H]2OCCN(CCN3CCCC3)[C@@H]2C1`, the cytotoxicity at 70.5 h was -10%.
The value for `COCCN1CCN(CC(=O)NC2(C#N)CCCC2)CC1C` (stereo not drawn) was 7.99%; that for `CCOC(=O)C1CCN(C(=O)CN2CCCC2c2ccccc2C)CC1` (stereo not drawn) was -10.7%; that for `Cc1cc2nc(C(=O)NCc3cccnc3N(C)C)cc(C)n2n1` was 3.6%.
Consider `Cc1noc2ncc(C(=O)N3CCCC3c3ccncc3)cc12` (stereo not drawn), for which the cytotoxicity at 70.5 h was determined as 33.6%.
To `CCC1CN(C(=O)Cc2coc(-c3ccccc3)n2)CCO1` (stereo not drawn) belongs -3.32%.
On to `CCOc1cc(C(=O)N2CCCC(c3noc(C)n3)C2)ccn1` (stereo not drawn), for which the cytotoxicity at 70.5 h is -12.6%.
The value for `CCC1COCCN1C(=O)NCc1nccn1CCc1ccccc1` (stereo not drawn) was -5.72%; that for `CC(C)(CNc1ccc(C#N)c(C(F)(F)F)c1)C(N)=O` was 2.06%.
To `COc1cccc(C(=O)NCC(c2cccn2C)N2CCCC2)c1OC` (stereo not drawn) belongs 3.39%; to `O=C([C@H]1C[C@H]2OCC[C@H]2N(CC2CC2)C1)N1CCCCO1`, -4.54%.
As for `Cc1ccc2oc(N3CCN(CC(=O)NC(C)C)CC3)nc2c1`, the cytotoxicity at 70.5 h stood at 10.6%.
To `O=c1[nH]cnc2[nH]c(N3CCNCC3)nc12` belongs -2.26%.
For the molecule `O=C(Cn1cc(I)cn1)N1CCCC1`, the cytotoxicity at 70.5 h was -3.36%.
Consider `Cc1ccc(CN2C[C@@H](C(=O)O)[C@H](c3ccccn3)C2)o1`, for which the cytotoxicity at 70.5 h turned out to be 17.9%.
To `OCC1CCCN1c1cc(N2CCN(c3ccccn3)CC2)ncn1` (stereo not drawn) belongs -9.58%.
